Data set [1] concerns CT26 cells. Kind of data set: Murine CRC model (CT26 cells) in BALB/c mice, combination with AdIL-12 gene therapy. It counts as in vivo, mouse. Particulars: mice with regression/mice in group; ANTARTINA 50 mg/kg 3 doses per week; AdIL12 10^9 TCID50 intratumorally, one dose at day 15. The source says: Mouse CT26 cells (5×10^5) were subcutaneously inoculated on day 0. On day 7, when tumors reached a diameter of 5-7 mm, animals were divided into 4 groups: saline, ANTARTINA®, AdIL12, and the combination of ANTARTINA® and AdIL-12. Tumor volume is shown in the left panel vs. days after CT26 inoculation. Excised tumors are depicted in the right panel.
Adenovirus IL-12 constructs are as previously reported. (Mazzolini et al., Cancer Gene Therapy, 6(6):514-522, 1999).
This is a murine model of CRC (CT26 cells) established in BALB/c mice. Mouse CT26 cells (5×10^5) were subcutaneously inoculated on day 0. On day 7, when tumors reached a diameter of 5-7 mm, animals were divided into 4 groups: saline, ANTARTINA® 50 mg/kg, 3 doses per week (systemically), AdIL12 (adenovirus encoding murine IL-12, dose: 10^9 TCID50, intratumorally, one dose at day 15 after tumor inoculation), and the combination of ANTARTINA® and AdIL-12. Tumor volume was measured with a caliper 3 times per week. […] Complete tumor regressions: saline […], AdIL-12 1/5, Antartina 2/5, and combined therapy: 4/5. (FIG. 6).

The test system of another data set is human CRC cell. As to the kind of experiment: In vitro human CRC cell proliferation. It is filed as cell-based. The source says:
(§1) In colorectal carcinoma (CRC) patients, distant metastatic disease is present at initial diagnosis in nearly 25% of patients. The majority of patients with metastatic CRC have an incurable disease; therefore, new therapies are needed to address this cancer. […] ANTARTINA® is an antitumor agent isolated from Deschampsia antarctica Desv. In that study, the aim was to evaluate the antitumor properties of ANTARTINA® in CRC models. Human and murine CRC cell lines were employed to investigate proliferation, apoptosis, and cell cycle effects of ANTARTINA® therapy in vitro. Immune response of ANTARTINA® against cancer cells in the CRC model was also investigated using a cytotoxic T lymphocyte (CTL) assay, analyzing dendritic cell activation and intratumor T cell sub-population, and by tumor re-challenge experiments.

For data set [2], the system named is CRC. As to the kind of experiment: Immunocompetent CRC mouse model. It is filed as in vivo.
Text: as §1

The subject of data set [3] is CRC. As to the kind of experiment: Cytotoxic T lymphocyte (CTL) assay. It is filed as cell-based.
Text: as §1

Another data set has as its system dendritic cell. Kind of data set: Dendritic cell activation. It is filed as cell-based.
Text: as §1

Data set [4] has as its system CT26 cells. As to the kind of experiment: Subcutaneous CRC model, CT26 cells in BALB/c mice. It is filed as in vivo, mouse. As to conditions: 50 mg/kg i.p., 3 times per week over 3 weeks; s.c. CT26 tumors in BALB/c mice; compared with ANTARTINA and tricin. The source says: FIG. 4 depicts cell size (mm^3) in mice of CT26 tumors after CT26 cell line injection into mice. […] The bottom panel provides a summary of all results in one graph.
Mouse CT26 tumor cell line, an undifferentiated murine colorectal carcinoma (CRC) cell line established from N-nitroso-N-methylurethan-induced transplantable tumor in BALB/c (H-2d) mice, BNL cells (an hepatoma cell line) were used in the studies below and can be obtained from the University of Navarra, Spain. Human cell lines were from American Type Culture Collection (ATCC, Manassas, Va., US), including LoVo (ATCC-CCL229), ASG (ATCC-CCRL-79) and lung fibroblast Wi38 (ATCC-CCL75). All lines were tested for mycoplasma and cultured in complete DMEM (GIBCO, Themo Fisher Scientific, mM glutamine, 100 U/mL penicillin, […] streptomycin, and 10% heat inactivated fetal bovine serum (FBS, GIBCO, Thermo Fisher Scientific) and incubated 37° C. in 5% CO2.
Subcutaneous CRC model: Six-to-eight-week-old male BALB/c mice were used. CT26 cells were injected at a dose of 5×10^5 cells subcutaneously (s.c.) into the right flank of BALB/c mice (day 0). Tumors were allowed to reach ^˜90 mm^3 in size before treatment. […] Tumor growth was assessed by caliper measurement. Tumor volume was calculated using the following formula: tumor volume (mm^3)=length×(width) 2/2.

The test system of a further data set is Hepa129 cells. Kind of data set: Orthotopic hepatocellular carcinoma model associated with fibrosis, Hepa129 cells in C3H/He mice. It counts as in vivo, mouse. Particulars: 50 mg/kg, 3 times per week from day 5; quantified fifteen days after tumor implantation; vs saline. The procedure:
On day 28, mice were anesthetized and orthotopic tumors were established by sub-capsular inoculation of 1.25×10^5 Hepa129 cells into the left liver lobe by laparotomy (day 0). Five days after tumor implantation, mice were distributed in groups (n=6-8/group) and received: i) saline (control, FIG. 5A, left panel); ii) acetylated ANTARTINA® (50 mg/kg, 3 times per week, FIG. 5A, right panel). Fifteen days after tumor implantation, mice were sacrificed and tumor volume was quantified, as depicted in FIG. 5B (control, left panel; acetylated ANTARTINA®, right panel).
Experimental model of HCC associated with fibrosis: C3H/He mice were treated intraperitoneally (i.p) with 200 mg/kg of thioacetamide (TAA) (Sigma-Aldrich, St. Louis, USA) 3 times a week for 4 weeks. On day 28, mice were anesthetized and orthotopic tumors were established by sub-capsular inoculation of 1.25×10^5 Hepa129 cells into the left liver lobe by laparotomy (day 0). Five days after tumor implantation, mice were distributed in groups (n=6-8/group) and received: i) saline (control); ii) acetylated ANTARTINA® (50 mg/kg, 3 times per week). (See, FIG. 5A). Fifteen days after tumor implantation, mice were sacrificed and tumor volume was quantified. (See, FIG. 5B).

Entries after “also recorded” stand apart in the source; their conditions may differ. Some results are limits rather than exact numbers.

The melting point is the temperature of the solid-liquid transition. `COc1cc(-c2cc(=O)c3c(O)cc(O[C@@H]4O[C@H](CO)[C@H](O)[C@H](O)[C@H]4O)cc3o2)cc(OC)c1O` (stereo in doubt): the melting point lay within 260.2 to 263.3 °C.

On to `COc1cc(-c2cc(=O)c3c(O)cc(O[C@@H]4O[C@H](CO)[C@@H](O[C@@H]5O[C@H](CO)[C@H](O)[C@H](O)[C@H]5O)[C@H](O)[C@H]4O)cc3o2)cc(OC)c1O` (stereo in doubt), for which the melting point was in the range of 275.4 to 279.2 °C.

`COc1cc(-c2cc(=O)c3c(O)cc(O[C@@H]4O[C@H](CO)[C@@H](O[C@@H]5O[C@H](CO)[C@@H](O)[C@H](O)[C@H]5O)[C@H](O)[C@H]4O)cc3o2)cc(OC)c1O` (stereo in doubt) displayed a melting point of 243.2 to 246.5 °C.

`COc1cc(-c2cc(=O)c3c(O)cc(O[C@@H]4O[C@H](COC(C)=O)[C@H](OC(C)=O)[C@H](OC(C)=O)[C@H]4OC(C)=O)cc3o2)cc(OC)c1O` (stereo in doubt): the melting point was in the range of 117.2 to 121.8 °C.

As to `COc1cc(-c2cc(=O)c3c(O)cc(O[C@@H]4O[C@H](CO)[C@@H](O)[C@H](O)[C@H]4O)cc3o2)cc(OC)c1O` [ANTARTINA®, tricin 7-O-β-D-glucopyranoside], the complete tumor regressions in the data set with CT26 cells [1] is 2/5. Besides, in the data set with human CRC cell, the “in vitro human CRC cell proliferation” value is listed as “inhibits”. In addition, the toxic effects entry in the data set on CRC [2] (at the doses employed) is given as “No toxic effects were observed”. In the data set with CRC [2] (mouse, in vivo), the animal survival rate entry was “increased”; the complete tumor regressions was > 30 % of mice; the “tumor growth and liver metastases” value is recorded as “potently inhibited”; the tumor immunogenicity result is on record as “increased tumor immunogenicity”. In the data set on CRC [2] (tumor re-challenge experiments), the “antitumor immunity (tumor re-challenge)” value is “long lasting antitumor immunity”. Also, the “specific cytotoxic T cell response against CRC” value in the data set with CRC [3] was “induced a potent specific cytotoxic T cell response”. Besides, in the data set on dendritic cell, the dendritic cell activation result is listed as “stimulated dendritic cell activation”.

Regarding `COc1cc(-c2cc(=O)c3c(OC(C)=O)cc(O[C@@H]4O[C@H](COC(C)=O)[C@@H](OC(C)=O)[C@H](OC(C)=O)[C@H]4OC(C)=O)cc3o2)cc(OC)c1OC(C)=O` [acetylated ANTARTINA®, Tricin 7-O-β-D-glucopyranoside, Per Acetylated], the melting point fell in the range of 239.1 to 241.8 °C. For the same molecule, in the data set on CT26 cells [4], the “tumor size (antitumoral effect)” value is “superior antitumoral effect in comparison with native ANTARTINA®; also recorded: clearly and markedly reduced tumor size at a higher rate than observed for any of the other tested agents”. Further, the tumor volume entry with Hepa129 cells is “markedly reduced the tumor volume”.

For the origin of these results see patent US11534449B2, “Tricin derivatives and compositions thereof for cancer treatment” (NEOCAGE SL, priority 2019, dated 2022).
